Experiments:
Assay type in all cases: cell-based, mouse
BMDMs [1] = assay: ELISA of cytokine release from BMDMs; settings: BMDMs pre-treated 3 h, LPS 4 h
Protocol: (§1) All compounds used DMSO as a vehicle except for 4-hydroxy tamoxifen (EtOH), NAC (PBS), and AOAA for tracing experiments (Media). LPS was used at a concentration of 100 ng/ml for indicated timepoints (2, 3, 4, 6, 8, 24, 48 h). FHIN1 (10 or 20 μM), MMF (50 or 100 μM), DMF (25 μM), AOAA (5 mM), oligomycin (10 μM), CCCP (50 μM) NAC (1 mM), and IMT1 (10 μM) pre-treatments were performed for 3 h prior the addition of LPS. Cells were treated with valinomycin (10 nM) 15 mins before LPS stimulation. Anti-CD210 or IgG control (10 μg/ml) antibodies were added to cells 1 h prior to LPS stimulation. Recombinant mouse IL-10 protein (100 ng/ml) was added to cells at the same time as LPS. Cells were treated with IFN-B1 (220 ng/ml) for 3 h. Cells were treated with C-178 (1 μM) 1 h prior to LPS stimulation or transfection with 2′3′-cGAMP (1.5 μg/ml) for 4 hrs to achieve cGAS-STING activation. Cells were treated with ODN 2088 (1 μM) for 1 hr prior to LPS stimulation or transfection with CPG ODN 1826 (1.5 μg/ml) to achieve TLR9 activation. 3 different timepoints of 4-hydroxy tamoxifen (TAM) (600 nM or 2 μM) or EtOH treatment were performed-these are specified in the individual figure legends. For ‘48 h’ treatments EtOH/TAM was added on day 5 of 6 during the BMDM differentiation protocol. On day 6 they were plated with EtOH/TAM (left overnight) and treated the following day. For ‘72 h’ treatments EtOH/TAM was added on day […] of 6 during the BMDM differentiation protocol. On day 6 they were plated with EtOH/TAM (left overnight) and treated the following day. For ‘96 h’ treatments EtOH/TAM was added on day […] of 6 during the BMDM differentiation protocol. On day 6 they were plated with EtOH/TAM and treated 2 days later.
Pre-designed silencer select siRNAs for Cgas (s103166), Tmem173 (s91058), Tlr3 (s100579), Tlr9 (s96268), As/(s99640), Tlr7 (s100720), Ddx58 (s106376), Ifih1 (s89787), Nrf2 (s70522), Atf4 (s62689) and negative control (4390843) were ordered from Thermo Fisher. siRNA sequences are given in Table S2. Cells were transfected with 50 nM siRNA using 5 μl lipofectamine RNAiMAX according to manufacturer's instructions (Thermo Fisher). Cells were transfected in medium without serum and antibiotics which was replaced with complete medium 8 hours later. Cells were subsequently left for at least a further 12 hours prior to treatment.
BMDMs were plated in the presence or absence of ultrapure ethidium bromide (100 ng/ml) and incubated for a further 6 days prior to treatment. Depletion of mtDNA was determined by genomic DNA isolation followed by qPCR using primers specific for areas of mitochondrial DNA (D-loop) and areas of mtDNA that are not inserted into nuclear DNA (Non-NUMT).
DuoSet ELISA kits for IL-1β, TNFα, IL-6, IL-10, and GDF15 were purchased from R&D Systems and were carried out according to the manufacturer's instructions with appropriately diluted cell supernatants added to each plate in duplicate or triplicate. IFN-β was determined using DuoSet ELISA kit from R&D Systems or Abcam (ab252363). Quantikine ELISA kit for IFN-β (R&D Systems) was used for determination of IFN-β concentration in serum samples and from human cells, and these were also carried out according to the manufacturer's instructions. Absorbance at 450 nm was quantified using a FLUOstar Optima plate reader. Corrected absorbance values were calculated by subtracting the background absorbance, and cytokine concentrations were subsequently obtained by extrapolation from a standard curve plotted on GraphPad Prism 9.2.0.

BMDMs [2] = assay: Stable isotope-assisted tracing (15N2-glutamine) in BMDMs; settings: 15N2-glutamine tracing, LPS-treated BMDMs, LPS 4 h
Protocol: All compounds used DMSO as a vehicle except for 4-hydroxy tamoxifen (EtOH), NAC (PBS), and AOAA for tracing experiments (Media). LPS was used at a concentration of 100 ng/ml for indicated timepoints (2, 3, 4, 6, 8, 24, 48 h). FHIN1 (10 or 20 μM), MMF (50 or 100 μM), DMF (25 μM), AOAA (5 mM), oligomycin (10 μM), CCCP (50 μM) NAC (1 mM), and IMT1 (10 μM) pre-treatments were performed for 3 h prior the addition of LPS. Cells were treated with valinomycin (10 nM) 15 mins before LPS stimulation. Anti-CD210 or IgG control (10 μg/ml) antibodies were added to cells 1 h prior to LPS stimulation. Recombinant mouse IL-10 protein (100 ng/ml) was added to cells at the same time as LPS. Cells were treated with IFN-B1 (220 ng/ml) for 3 h. Cells were treated with C-178 (1 μM) 1 h prior to LPS stimulation or transfection with 2′3′-cGAMP (1.5 μg/ml) for 4 hrs to achieve cGAS-STING activation. […]
BMDMs (3 independent mice) were plated at 0.5×10^6 cells/well in 12-well plates in technical triplicate per condition, treated as indicated in glutamine-free DMEM supplemented with U-^13C-glutamine or ^15N2-glutamine, respectively. For ^13C- and ^15N-tracing analysis, the theoretical masses of ^13C and ^15N isotopes were calculated and added to a library of predicted isotopes in Tracefinder 5.0. […]

BMDMs [3] = assay: LC-MS steady-state metabolomics / fumarate levels in BMDMs; settings: BMDMs, AOAA 5 mM pre-treatment, LPS 4 h
Protocol: as §1
BMDMs (3 independent mice) were plated at 0.5×10^6 cells/well in 12-well plates in technical triplicate per condition, treated as indicated, snap frozen and stored at −80° C. For metabolomics on cytosolic fraction, BMDMs were plated at 10×10^6 cells/10 cm dish and rapid fractionation was performed as previously reported^16. Metabolite extraction solution (MES) (methanol/acetonitrile/water, 50:30:20 v/v/v) was added (0.5 mL per 1×10^6 cells) and samples were incubated for 15 min on dry ice. The resulting suspension was transferred to ice-cold microcentrifuge tubes. Samples were agitated for 20 min at 4° C. in a thermomixer and then incubated at −20° C. for 1 h. Samples were centrifuged at maximum speed for 10 min at 4° C. The supernatant was transferred into a new tube and centrifuged again at maximum speed for 10 min at 4° C. The supernatant was transferred to autosampler vials and stored at −80° C. prior to analysis by LC-MS.
HILIC chromatographic separation of metabolites was achieved using a Millipore Sequant ZIC-PHILIC analytical column (5 μm, 2.1×150 mm) equipped with a 2.1×20 mm guard column (both […] particle size) with a binary solvent system. Solvent A was 20 mM ammonium carbonate, 0.05% ammonium hydroxide; Solvent B was acetonitrile. The column oven and autosampler tray were held at 40° C. and 4° C., respectively. The chromatographic gradient was run at a flow rate of 0.200 mL/min as follows: 0-2 min: 80% B; 2-17 min: linear gradient from 80% B to 20% B; 17-17.1 min: linear gradient from 20% B to 80% B; 17.1-22.5 min: hold at 80% B. Samples were randomized and analysed with LC-MS in a blinded manner and the injection volume was 5 μl. Pooled samples were generated from an equal mixture of all individual samples and analysed interspersed at regular intervals within sample sequence as a quality control. Metabolites were measured with a Thermo Scientific Q Exactive Hybrid Quadrupole-Orbitrap Mass spectrometer (HRMS) coupled to a Dionex Ultimate 3000 UHPLC or with Vanquish Horizon UHPLC coupled to an Orbitrap Exploris 240 mass spectrometer (both Thermo Fisher Scientific) via a heated electrospray ionization source. […]

SMILES: NOCC(=O)O [AOAA, aminooxyacetic acid]
- IL-10 release (BMDMs [1]): modestly increased
- TNF-α release (BMDMs [1]): reduced
- contribution of glutamine nitrogen to aspartate, asparagine, arginine and citrulline (BMDMs [2]): completely prevented
- aspartate, asparagine, argininosuccinate levels following LPS stimulation (BMDMs [3]): reduced
- fumarate levels following LPS stimulation (BMDMs [3]): reduced
